# Assay results published in patent publication US20130005759A1, “SMALL MOLECULE MODIFIERS OF MICRORNA MIR-122” (North Carolina State University, priority 2010, published 2013).
# In the oligonucleotide strings, read from the 5' end, every base follows the letter of its sugar. An asterisk marks phosphorothioate; unmarked linkages are phosphodiester. Other units and linkages are bracketed, terminal groups are in braces. A string of capitals states the bases alone. m = 2'-O-methyl
# Assays:
# miR-122 = assay: psiCHECK-miR122 dual luciferase reporter assay in Huh7 cells; type: cell-based, human; conditions: for miR-122 inhibitory activity (structure-activity, in words) / miR-122 activation (structure-activity, in words): Huh7, 10 μM; for miR-122 inhibitory activity (structure-activity, in words): relative to parent inhibitor 1 or 2; for miR-122 activation (structure-activity, in words): relative to parent activator 3
# From the text: A miRNA small molecule modifier screen for miR-122 was developed based on the psiCHECK-2 (Promega) reporter plasmid (FIG. 9). This construct expresses both Renilla luciferase as well as firefly luciferase, allowing for the normalization of the signal to account for differential cellular viability and variability in transfection efficiency. The miR-122 target sequence was inserted downstream of the Renilla luciferase gene, between the PmeI and SgfI restriction sites. In another aspect of the invention, plasmids expressing luciferase or another reporter gene such as for example, fluorescent reporters (GFP and variants thereof, DsRed, etc.) or beta-galactosidase can be used to screen for small molecule modifiers of miR-122. The mi-122 target sequence may be upstream or downstream of the reporter gene. Multiple miR-122 target sites can also be inserted into or be present in the plasmid.
# The presence of mature miR-122 will lead to a decrease in the Renilla luciferase signal (FIG. 1a). The ability to detect endogenous miR-122 was validated by transfecting the generated psiCHECK-miR122 construct into Huh7 and HeLa cells. After 48 hour incubation, the cells were assayed using a Dual Luciferase Assay Kit (Promega). In another embodiment, the cells can be incubated for about 24-96 hours. The Dual Luciferase Assay Kit provides a means to measure the amount of the luciferases by generating a luminescent signal. Using this assay the luminescence from the firefly luciferase reaction may be quenched while the luminescent reaction of Renilla luciferase can be activated. Other assays and procedures that can determine the amount of the one or more reporter genes or miR-122 expression, activity or function can be used. An example of another assay is Dual-Glo Assay (Promega).
# The psiCHECK-miR122 vector was then employed in a small molecule screen in Huh7 cells to discover modifiers of miR-122 function. Other cells that express miR-122 such as HepG2 and Hep3B can be used in addition to or instead of Huh7 cells. An increase in the relative Renilla luciferase signal indicates a miR-122 inhibitor, while a reduction in the luciferase signal indicates a miR-122 activator. A genus of compounds that may have activity as modifiers of miR122 function are the Diversity Set II (1364 compounds) from the NCI Developmental Therapeutics Program was screened using Huh7 cells containing the psiCHECK-miR122 reporter. Cells were exposed to the small molecules and the relative luciferase signal was measured after 48 hours using a Dual Luciferase Assay Kit (Promega). In another embodiment the cells can be exposed to the small molecules for about 24-96 hours. As explained above, other assays and procedures that can determine the amount of the one or more reporter genes or miR-122 expression, activity or function can be used.
# The analogs were screened for activity using the previously described miR-122 assay. All cells were treated with 10 μM of a compound and experiments were performed in triplicate to ensure statistical validity. The data was normalized to a 1% DMSO control and is reported in relative luciferase units (RLU). The standard deviation was calculated from three independent assays. Some analogs of miR-122 inhibitor compound 1 are:
# Huh7 and HeLa cells were transfected at approximately 60% confluency with either the psiCHECK-Control plasmid (the original psiCHECK-2 plasmid containing no known miRNA binding site) or the psiCHECK-miR122 plasmid (0.5 μg) using X-tremGENE transfection reagent (3:2 reagent/DNA ratio; Roche) in Opti-Mem media (Invitrogen). All transfections were performed in triplicate for statistical analysis. The cells were incubated at 37° C. for 4 hours followed by the replacement of transfection media with standard DMEM growth media. After 48 hours of incubation the media was removed, cells were lysed and assayed with a Dual Luciferase Assay Kit (Promega) using a Wallac VICTOR^3V luminometer with a measurement time of 1 s and a delay time of 2 s. […]
# [1] = tested on: hepatitis C virus (HCV) genotype 1a H77c RNA; assay: HCV replication in Huh7 cells (HCV RNA by quantitative RT PCR); type: cell-based; conditions: Huh7, 10 μM (antagomir transfected), 48 hours
# Procedure: Aberrantly regulated miR-122 is involved in the development of heptocellular carcinoma (HCC). miR-122 is a cellular component required by hepatitis C virus (HCV) for viral replication. […] Due to the efficient down-regulation of miRNA-122 by the small molecule inhibitors 1 and 2, both compounds were tested for their ability to inhibit HCV replication in Huh7 cells. The pHtat2Neo/QR/KR/FV/SI plasmid (provided by Dr. Stanley Lemon of University of Texas Medical Branch (UTMB)) was used to generate genotype 1a H77c RNA, which was subsequently transfected into Huh7 cells.^16 The cells were then either transfected with a miR-122 antagomir (positive control), or treated with compounds 1 and 2 (10 μM), or DMSO (negative control). After 48 hours, total RNA was isolated and HCV RNA levels were measured by quantitative RT PCR (FIG. 7). In agreement with previous reports, the antagomir reduced HCV RNA levels to 20%.^6 Moreover, the small molecule miR-122 inhibitors 1 and 2 elicited a reduction in viral load to 48% and 47%, respectively.
# The pHtat2Neo/QR/KR/FV/SI plasmid (provided by Dr. Stanley Lemon)^16 was linearized using XbaI (10 units, 50 μL reaction; New England Biolabs), followed by transcription with T7 RNA Polymerase (6 h, 37° C.), and purification on Microcon 10 columns. Huh7 cells were then grown to 60% confluency in a 6 well plate and transfected with 1 μg RNA using X-tremGENE transfection reagent (Roche Applied Science, 3:2 reagent/RNA ratio) in Opti-Mem media (Invitrogen). After a 4 hour incubation at 37° C., the transfection media was removed and replaced with standard growth media (2 mL) supplemented with 10 μM of 1 or 2 (1% DMSO final concentration). All experiments were conducted in triplicate for statistical validation. […] Quantitative RT-PCR was then performed as previously described using the general HCV RT-PCR Primers (5′: […] 3′ (SEQ ID NO:7) and 5′ […] 3′) (SEQ ID NO:8) and GADPH primers (5′ […] 3′ (SEQ ID NO:9) and 5′ […] 3′) (SEQ ID NO:10) as a standard control.
# [2] = tested on: psiCHECK-control vector (no miRNA target sequence); assay: psiCHECK-control vector luciferase counter-assay in Huh7 cells; type: cell-based, human; conditions: Huh7, 10 μM
# From the text: (FIG. 3). […] The relative luciferase units were normalized to the corresponding DMSO signals. […] This confirms that compound 2 and the antagomir have similar effects on the reduction of miR-122 function in Huh7 cells.
# Compounds which elicited greater than a 5-fold increase of the relative luciferase units signal compared to the DMSO control were then re-assayed in triplicate to confirm the validity of the hit compound. Upon secondary validation of miR-122 inhibition, identical assays were repeated with the psiCHECK-Control vector to ascertain that the effect is specific to the miR-122 pathway, and not simply affecting the Renilla gene. In order to assess the relative degree of miR-122 inhibition, Huh7 cells were also co-transfected with either the psiCHECK-Control plasmid or the psiCHECK-miR122 plasmid (0.5 μg) and a miR-122 2′-OMe PS antagomir (50 pmol; 5′ […] (SEQ ID NO:4) 3′; IDT DNA)(2) using the X-tremGENE transfection reagent (Roche Applied Science, 4:2 reagent/DNA ratio). The transfection media was replaced with standard DMEM growth media after 4 hours and the cells were incubated for 48 hours prior to analysis with a Dual Luciferase Assay Kit (FIG. 3).
Compound,"miR-122 inhibitory activity (structure-activity, in words) (miR-122)",also measured
O=C(NCc1ccc2ccccc2c1)c1ccc(Cl)cc1Cl [1e],virtually complete loss of miR-122 inhibitory activity,–
O=C(NCc1ccc2ccccc2c1)c1ccc(Cl)cc1Cl [1f],virtually complete loss of miR-122 inhibitory activity,–
"O=C(Nc1ccccc1)c1ccc(Cl)cc1Cl [1g, 2,4-Dichloro-N-phenylbenzamide]",complete loss of miR-122 inhibitory activity,–
"Nc1ccc(NC(=O)c2ccc(Cl)cc2Cl)cc1 [1h, N-(4-Aminophenyl)-2,4-dichlorobenzamide]",complete loss of miR-122 inhibitory activity,–
"O=C(Nc1ccc(I)cc1)c1ccc(Cl)cc1Cl [1i, 2,4-Dichloro-N-(4-iodophenyl)benzamide]",complete loss of miR-122 inhibitory activity,–
O=C(NCc1ccc2ccccc2c1)c1ccc(Cl)cc1Cl [1m],substantial loss of activity,–
"O=S(=O)(c1ccc2c(c1)CCCN2)N1CCCc2ccccc21 [2b, 6-(3,4-Dihydroquinolin-1(2H)-ylsulfonyl)-1,2,3,4-tetrahydroquinoline]",loss of activity,–
"O=S(=O)(Nc1ccccc1)c1ccc2c(c1)CCCN2 [2c, N-Phenyl-1,2,3,4-tetrahydroquinoline-6-sulfonamide]",Activity was maintained,"relative luciferase units (RLU) normalized to a DMSO control (miR-122; Huh7, psiCHECK-miR122, 10 μM, mean ± SD of three independent assays): 9.9±3.1 RLU"
"Nc1ccc(NS(=O)(=O)c2ccc3c(c2)CCCN3)cc1 [2d, N-(4-Aminophenyl)-1,2,3,4-tetrahydroquinoline-6-sulfonamide]",lost,–
"CN(C)CCN1C(=O)c2cccc3cccc(c23)C1=O [3a, 2-(2-(Dimethylamino)ethyl)-1H-benzo[de]isoquinoline-1,3(2H)-dione]",–,"miR-122 activation (structure-activity, in words) (miR-122): retention of activity"
"NCCN1C(=O)c2cccc3cc(N)cc(c23)C1=O [3c, 5-Amino-2-(2-aminoethyl)-1H-benzo[de]isoquinoline-1,3(2H)-dione]",–,"miR-122 activation (structure-activity, in words) (miR-122): increasing loss of activity"
"Nc1cc2c3c(cccc3c1)C(=O)N(Cc1ccc3ccccc3c1)C2=O [3g, 5-amino-2-(naphthalen-2-ylmethyl)-1H-benzo[de] isoquinoline-1,3(2H)-dione]",–,"miR-122 activation (structure-activity, in words) (miR-122): complete loss of miR-122 activation"
"antagomir: miR-122 2′-OMe PS antagomir, 5′ ACAAACACCAUUGUCACACUCCA 3′ (SEQ ID NO:4), positive control (mA*mC*mA*mA*mA*mC*mA*mC*mC*mA*mU*mU*mG*mU*mC*mA*mC*mA*mC*mU*mC*mC*mA) [reference compound]",–,"HCV RNA levels / viral load reduced to [1]: 20%; Renilla luciferase expression with psiCHECK-miR122 (in words) (miR-122; Huh7, 10 μM (antagomir transfected), normalized to DMSO): significant increase; normalized Renilla luciferase signal with psiCHECK-control vector [2]: no statistically significant alteration"
